The source of these data is ChEMBL document CHEMBL5108065 (J Med Chem, 2022).

Converted amounts (≈) assume the structure as drawn. The source made the active and inactive calls. The calls are words filed in the database; no cut-off is given here.

Series [1] can be described thus: Cmax in Cynomolgus monkey blood at 10 mg/kg, po measured at 2 to 72 hrs by LC-MS/MS analysis. In kind it is ADME, organism-based, Macaca fascicularis. The arrangement: dose 10 mg/kg, time 2-72 hrs, route po. To be noted: whole blood.
The nature of series [2]: Intrinsic clearance in rat hepatocytes measured per 10^6 cells. The format is ADME, cell-based, Hepatocyte.
Series [3] deals with Plasmodium falciparum. Description: Antiplasmodial activity against sensitive Plasmodium falciparum NF54 infected in human red blood cells assessed as reduction in [3H]-hypoxanthine incorporation pretreated for 48 hrs followed by [3H]-hypoxanthine addition measured after 24 hrs by scintillation counting method. The format is functional, organism-based.
A short description of series [4]: Toxicity in Han Wistar rat assessed as effect on pupillary reflex at 250 to 1000 mg/kg, po administered every other day for 7 days. Particulars: in vivo, 168 h, dose 250-1000 mg/kg, time 7 day. In kind it is organism-based.
Series [5] deals with Plasmodium falciparum. The experiment in a line: Antimalarial activity against Plasmodium falciparum 7G8 harbouring Pf-crt, Pf-mdrl,Pf-dhfr, Pf-dhps mutated loci assessed as inhibition of parasite growth pretreated for 48 hrs followed by [3H]-hypoxanthine addition measured after 24 hrs by scintillation counting method. The format is functional, organism-based.
Series [6] is described as follows: Toxicity in Han Wistar rat assessed as effect on photopic amplitude at 1000 mg/kg, po administered every other day for 7 days by ERG analysis. The format is organism-based. To be noted: in vivo, 168 h, time 7 day.
Series [7] in a line: Cardiotoxicity in anesthetized guinea-pig assessed as decrease in heart rate. The format is toxicity, Cavia porcellus. To be noted: 0.09 µM, DDE = dose-dependent effect, dose 90 nM.
The target of the next series is Plasmepsin X (Plasmodium falciparum (isolate 3D7), UniProt Q8IAS0). The experiment in a line: Inhibition of PMX in Plasmodium falciparum 3D7 HA epitope.
The subject of series [8] is Plasmodium falciparum. The experiment in a line: Antimalarial activity against ELQ300 resistant Plasmodium falciparum Dd2 harbouring pfcytB mutated loci assessed as inhibition of parasite growth pretreated for 48 hrs followed by [3H]-hypoxanthine addition measured after 24 hrs by scintillation counting method. In kind it is functional, organism-based.
For another series, the species on record is Homo sapiens. The experiment in a line: Inhibition of BACE (unknown origin) at 10 uM relative to control.
The nature of series [9]: Cardiotoxicity in anesthetized guinea-pig assessed as cardiac contractility. In kind it is toxicity, Cavia porcellus. Particulars: 0.09 µM, DDE = dose-dependent effect, dose 90 nM.
The target in series [10] is Plasmepsin X (Plasmodium falciparum (isolate 3D7)) (UniProt Q8IAS0). Particulars: Expi293F GnTI-.
Description: Inhibition of Plasmodium falciparum recombinant C-terminal TEV cleavable 8his-tagged PMX by FRET assay
Series [11] is described as follows: Drug metabolism in dog hepatocytes assessed as (S)-6-(2-chloro-3-((6-cyclopropylpyridin-3-yl)amino)phenyl)-2-imino-6-methyltetrahydropyrimidin-4(1H)-one metabolite formation. The format is ADME, cell-based, Canis lupus familiaris, Hepatocyte.
Series [12] relates to Plasmodium berghei. The experiment in a line: Antimalarial activity against luciferase expressing Plasmodium berghei sporozoites infected in naive C57B/6 liver mouse model assessed as decrease in liver infection at 50 mg/kg, po administered twice daily on day 8 by Giemsa staining based microscopic analysis. In kind it is functional, organism-based. To be noted: time 8.0 day.

For series [13], the system named is Plasmodium falciparum. The experiment in a line: Antimalarial activity against blood stage Plasmodium infected in NSG mouse model assessed as parasite recrudescence by measuring parasitemia at 50 mg/kg, po measured 60 days by flow cytometry. The format is functional, organism-based. Particulars: time 60.0 day. (A flow cytometer gives signals particle by particle.)

Series [14] has as its system Plasmodium falciparum. Description: Antimalarial activity against Plasmodium falciparum infected NSG mouse model at 50 mg/kg, po administered daily for 3 days. The format is functional, organism-based. To be noted: time 3.0 day.
A short description of series [15]: Drug metabolism in human hepatocytes assessed as (S)-6-(2-chloro-3-((6-cyclopropylpyridin-3-yl)amino)phenyl)-2-imino-6-methyltetrahydropyrimidin-4(1H)-one metabolite formation. The format is ADME, cell-based, Hepatocyte.
The subject of series [16] is Plasmodium falciparum. The experiment in a line: Antimalarial activity against asexual blood stage Plasmodium falciparum 3D7 assessed as parasite growth inhibition by measuring parasitemia by LDH assay. In kind it is functional, organism-based.
The test system of series [17] is Plasmodium berghei. Description: Antimalarial activity against Plasmodium berghei sporozoites infected in naive C57B/6 liver mouse model assessed as decrease in liver infection at 50 mg/kg, po administered once daily for 1 to 2 days by Giemsa staining based microscopic analysis. The format is functional, organism-based. To be noted: time 1-2 day.
Series [18] is described as follows: Solubility of the compound in FeSSIF. The format is physicochemical. To be noted: simulated gi fluid.

Chain of Plasmepsin X (Plasmodium falciparum (isolate 3D7)) (Q8IAS0 whole entry): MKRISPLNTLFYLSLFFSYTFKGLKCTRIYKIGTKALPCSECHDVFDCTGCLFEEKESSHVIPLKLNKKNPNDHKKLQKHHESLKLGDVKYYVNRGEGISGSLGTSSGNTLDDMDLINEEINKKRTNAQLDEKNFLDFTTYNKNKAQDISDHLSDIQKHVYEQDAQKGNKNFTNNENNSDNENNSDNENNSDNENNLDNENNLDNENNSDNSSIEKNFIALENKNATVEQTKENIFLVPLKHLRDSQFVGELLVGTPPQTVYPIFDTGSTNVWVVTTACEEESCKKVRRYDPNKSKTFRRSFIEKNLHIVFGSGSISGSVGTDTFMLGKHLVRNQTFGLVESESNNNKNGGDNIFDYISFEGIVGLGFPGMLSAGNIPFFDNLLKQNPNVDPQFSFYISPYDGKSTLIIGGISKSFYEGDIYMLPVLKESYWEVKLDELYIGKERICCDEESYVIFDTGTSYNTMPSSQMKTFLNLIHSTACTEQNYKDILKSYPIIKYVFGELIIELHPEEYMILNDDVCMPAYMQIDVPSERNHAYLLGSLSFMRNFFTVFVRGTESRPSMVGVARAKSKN
Chain of Plasmepsin X (Q8IAS0 whole entry): as above

Turning to `C[C@H]1C[C@@H](N2C(=N)N[C@](C)(c3cccc(NC(=O)c4cccc(C#N)c4)c3Cl)CC2=O)CCO1`, in series [1], the Cmax was 2560 nM. Besides, in series [2], the CLH worked out at 66 µL/min. The IC50 came to 34.6 nM in the series with Plasmodium falciparum [3], 24 nM with Plasmodium falciparum [5], 7 nM against Plasmepsin X and 17 nM in the series with Plasmodium falciparum [8]. Moreover, the Activity result is listed as “Non-Toxic” in series [4], “Non-Toxic” in series [6], “Dde” in series [7] and “Dde” in series [9]. Further, in the series filed under Homo sapiens, the inhibition was 64%. Moreover, the 90% effect concentration (IC90) in [10] turned out to be 52 nM.
Turning to `C[C@H]1C[C@@H](N2C(=N)N[C@](C)(c3cccc(Nc4ccc(C5CC5)nc4)c3Cl)CC2=O)CCO1`, the Drug metabolism entry in [11] and in series [15] was “Metabolite_Detected” throughout. The result with Plasmodium berghei [12], with Plasmodium falciparum [13], in the series on Plasmodium falciparum [14] and with Plasmodium berghei [17] was Active. Moreover, in the series on Plasmodium falciparum [16], the IC50 is 14 nM. For the same molecule, the solubility in [18] is 960 µM (≈ 449 µg/mL).

In general, Cmax refers to the peak of the concentration-time curve. For orientation: IC50 means the midpoint of a concentration-inhibition curve. In general, inhibition refers to the share of the control response that was lost under treatment. For orientation: IC90 means the concentration needed for an effect of 90%. What is called solubility is the concentration that dissolves in the medium under given conditions.
